Assay results published in paper PMC3365763 (The Journal of Biological Chemistry, 2012).

Target: T1, TG2 (transglutaminase-2, transglutaminase type 2) (Homo sapiens, UniProt P21980)
T1 sequence (P21980 1-687): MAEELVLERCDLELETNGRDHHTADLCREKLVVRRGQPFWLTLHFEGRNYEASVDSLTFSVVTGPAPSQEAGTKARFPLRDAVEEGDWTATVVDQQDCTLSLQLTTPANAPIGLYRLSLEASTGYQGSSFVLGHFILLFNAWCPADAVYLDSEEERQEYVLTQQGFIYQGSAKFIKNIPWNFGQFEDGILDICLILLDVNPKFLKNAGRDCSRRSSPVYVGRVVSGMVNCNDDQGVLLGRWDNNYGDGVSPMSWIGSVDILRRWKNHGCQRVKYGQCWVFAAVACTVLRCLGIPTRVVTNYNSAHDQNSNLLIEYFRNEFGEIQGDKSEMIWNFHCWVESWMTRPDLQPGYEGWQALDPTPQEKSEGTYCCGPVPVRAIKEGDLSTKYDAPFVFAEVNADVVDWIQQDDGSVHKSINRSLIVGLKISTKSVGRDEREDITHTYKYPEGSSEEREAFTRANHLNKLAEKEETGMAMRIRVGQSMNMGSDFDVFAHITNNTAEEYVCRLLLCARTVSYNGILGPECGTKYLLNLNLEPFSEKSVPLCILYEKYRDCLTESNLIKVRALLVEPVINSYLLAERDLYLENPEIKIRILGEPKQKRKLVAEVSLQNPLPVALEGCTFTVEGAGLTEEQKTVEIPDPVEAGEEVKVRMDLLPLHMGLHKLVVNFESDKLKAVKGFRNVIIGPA
Format: biochemical

Q: How did the IC50 turn out when Nc1nc2c(ncn2[C@@H]2O[C@H](COP(=O)(O)OP(=O)(O)OP(=O)(O)O)[C@@H](O)[C@H]2O)c(=O)[nH]1 [GTP] was run?
A: 142 ± 24 µM
